Experimental data from patent publication US8492559B2, “Substituted indole compounds” (Gruenenthal GmbH, priority 2009, dated 2013).

target: T1, B1R receptor of the rat (rB1R) (Rattus norvegicus, UniProt P97583); assay: Functional investigation on the bradykinin 1 receptor (B1R), FLIPR Ca2+ assay, rB1R cells; type: cell-based; conditions: 10 μM test substance; CHO K1 cells with rat B1R; agonist Des-Arg9 bradykinin; % of maximum achievable inhibition; 10 µM
T1 construct: expressed in transfected cells; host or cells: CHO K1 cells
T1 sequence (P97583 1-337): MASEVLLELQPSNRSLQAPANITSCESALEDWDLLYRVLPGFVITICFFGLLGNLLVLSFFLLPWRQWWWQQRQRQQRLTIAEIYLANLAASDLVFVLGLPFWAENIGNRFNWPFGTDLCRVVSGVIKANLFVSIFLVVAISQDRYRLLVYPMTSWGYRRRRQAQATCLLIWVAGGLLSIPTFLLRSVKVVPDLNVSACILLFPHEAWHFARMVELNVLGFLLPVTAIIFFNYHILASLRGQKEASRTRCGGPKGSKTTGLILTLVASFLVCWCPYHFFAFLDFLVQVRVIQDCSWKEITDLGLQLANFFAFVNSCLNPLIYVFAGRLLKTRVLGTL
In short: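 Cells plated at 20,000-35,000/well, incubated overnight at 37° C, loaded with Fluo-4 (2.13 μM, 60 min, 37° C, or 2.5 μM in buffer A), then read in FLIPR (λex 488, λem 540 nm). Agonist: Lys-Des-[MUT] bradykinin (0.5 nM) or Des-[MUT] bradykinin (100 nM). IC50 from % inhibition versus maximum, n=2-3, N>=2.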

B1R antagonism, rat [10 μM] % inhibition [%] | SMILES
78 | COc1cc(C)c(S(=O)(=O)Nc2ccc3ccn(CC(=O)N4CCC(CCN5CCCC5)CC4)c3c2)c(C)c1 [Compound G-01, 4-Methoxy-2,6-dimethyl-N-[1-[2-oxo-2-[4-(2-pyrrolidin-1-yl-ethyl)-piperidin-1-yl]-ethyl]-1H-indol-6-yl]-benzenesulfonic acid amide]
96 | COc1cc(C)c(S(=O)(=O)Nc2cccc3ccn(CC(=O)N4CCC5(CC4)CCN(c4ccncc4)CC5)c23)c(C)c1 [Compound G-05, 4-Methoxy-2,6-dimethyl-N-[1-[2-oxo-2-(9-pyridin-4-yl-3,9-diazaspiro[5.5]undecan-3-yl)-ethyl]-1H-indol-7-yl]-benzenesulfonic acid amide]
76 | O=C(CCn1ccc2cccc(N3Cc4cccc(Cl)c4C3=O)c21)N1CCC2(CC1)CCN(c1ccncc1)CC2 [Compound G-10, 7-Chloro-2-(1-(3-oxo-3-(9-(pyridin-4-yl)-3,9-diazaspiro[5.5]undecan-3-yl)propyl)-1H-indol-7-yl)isoindolin-1-one]

same assay, conditions: CHO-K1, 10 μM test substance; CHO K1 cells with rat B1R; agonist Des-Arg9 bradykinin; % of maximum achievable inhibition; read-out: B1R antagonism, rat [10 μM] % inhibition

SMILES | inhibition at 10 µM [%]
COc1cc(C)c(S(=O)(=O)Nc2cccc3ccn(CC(=O)N4CCC(CCN5CCCC5)CC4)c23)c(C)c1 [Compound G-02, 4-Methoxy-2,6-dimethyl-N-[1-[2-oxo-2-[4-(2-pyrrolidin-1-yl-ethyl)-piperidin-1-yl]-ethyl]-1H-indol-7-yl]-benzenesulfonic acid amide] | 100
COc1cc(C)c(S(=O)(=O)Nc2cccc3ccn(CC(=O)N4CCC5(CC4)C(=O)NCN5c4ccccc4)c23)c(C)c1 [Compound G-04, 4-Methoxy-2,6-dimethyl-N-[1-[2-oxo-2-(1-oxo-4-phenyl-2,4,8-triazaspiro[4.5]decan-8-yl)-ethyl]-1H-indol-7-yl]-benzenesulfonic acid amide] | 62
COc1cc(C)c(S(=O)(=O)Nc2cccc3ccn(CC(=O)N4CCC(OCCN5CCCC5)(c5cccnc5)CC4)c23)c(C)c1 [Compound G-06, 4-Methoxy-2,6-dimethyl-N-[1-[2-oxo-2-[4-pyridin-3-yl-4-(2-pyrrolidin-1-yl-ethoxy)-piperidin-1-yl]-ethyl]-1H-indol-7-yl]-benzenesulfonic acid amide] | 70
COc1cc(C)c(S(=O)(=O)Nc2cccc3ccn(CC(=O)N4CCC5(CCN(c6ccncc6)CC5)C4)c23)c(C)c1 [Compound G-14, 4-Methoxy-2,6-dimethyl-N-(1-(2-oxo-2-(8-(pyridin-4-yl)-2,8-diazaspiro[4.5]decan-2-yl)ethyl)-1H-indol-7-yl)benzenesulfonic acid amide] | 96
COc1cc(C)c(S(=O)(=O)Nc2cccc3ccn(CC(=O)N4CCC(N5CCc6cc(CN7CCCCC7)ccc6C5)C4)c23)c(C)c1 (centres unmarked) [Compound G-16, 4-Methoxy-2,6-dimethyl-N-(1-(2-oxo-2-(3-(6-(piperidin-1-ylmethyl)-3,4-dihydroisoquinolin-2(1H)-yl)pyrrolidin-1-yl)ethyl)-1H-indol-7-yl)benzenesulfonic acid amide] | 96
COc1cc(C)c(S(=O)(=O)Nc2cccc3ccn(CC(=O)N4CCC5(CCC(N6CCC6)CC5)CC4)c23)c(C)c1 [Compound G-18, N-(1-(2-(9-(azetidin-1-yl)-3-azaspiro[5.5]undecan-3-yl)-2-oxoethyl)-1H-indol-7-yl)-4-methoxy-2,6-dimethylbenzenesulfonic acid amide] | 99
COc1cc(C)c(S(=O)(=O)Nc2cccc3ccn(CC(=O)N4CCC5(CCC(Oc6ccncc6)CC5)CC4)c23)c(C)c1 [Compound G-22, 4-Methoxy-2,6-dimethyl-N-(1-(2-oxo-2-(9-(pyridin-4-yloxy)-3-azaspiro[5.5]undecan-3-yl)ethyl)-1H-indol-7-yl)benzenesulfonic acid amide] | 99

Continued, values first:

inhibition at 10 µM [%] | SMILES
100 | O=C(CCn1ccc2ccc(N3Cc4cccc(Cl)c4C3=O)cc21)N1CCC2(CC1)CCN(c1ccncc1)CC2 [Compound G-07, 7-Chloro-2-[1-[3-oxo-3-(9-pyridin-4-yl-3,9-diazaspiro[5.5]undecan-3-yl)-propyl]-1H-indol-6-yl]-2,3-dihydro-isoindol-1-one]
97 | O=C(Cn1ccc2ccc(N3Cc4cccc(Cl)c4C3=O)cc21)N1CCC2(CC1)CCN(c1ccncc1)CC2 [Compound G-08, 7-Chloro-2-[1-[2-oxo-2-(9-pyridin-4-yl-3,9-diazaspiro[5.5]undecan-3-yl)-ethyl]-1H-indol-6-yl]-2,3-dihydro-isoindol-1-one]
-21 | O=C(Cn1ccc2cccc(N3Cc4cccc(Cl)c4C3=O)c21)N1CCC2(CC1)CCN(c1ccncc1)CC2 [Compound G-11, 7-Chloro-2-(1-(2-oxo-2-(9-(pyridin-4-yl)-3,9-diazaspiro[5.5]undecan-3-yl)ethyl)-1H-indol-7-yl)isoindolin-1-one]
92 | O=C(Cn1ccc2ccc(N3Cc4cccc(Cl)c4C3=O)cc21)N1CCC2(CCN(c3ccncc3)CC2)C1 [Compound G-12, 7-Chloro-2-(1-(2-oxo-2-(8-(pyridin-4-yl)-2,8-diazaspiro[4.5]decan-2-yl)ethyl)-1H-indol-6-yl)isoindolin-1-one]
96 | COc1cc(C)c(S(=O)(=O)Nc2cccc3ccn(CC(=O)N4CCC5(CC4)CC(c4ccncc4)=NO5)c23)c(C)c1 [Compound G-13, 4-Methoxy-2,6-dimethyl-N-(1-(2-oxo-2-(3-(pyridin-4-yl)-1-oxa-2,8-diazaspiro[4.5]dec-2-en-8-yl)ethyl)-1H-indol-7-yl)benzenesulfonic acid amide]
54 | O=C(Cn1ccc2ccc(N3Cc4cccc(Cl)c4C3=O)cc21)N1CCC2(CC1)CC(c1ccncc1)=NO2 [Compound G-15, 7-Chloro-2-(1-(2-oxo-2-(3-(pyridin-4-yl)-1-oxa-2,8-diazaspiro[4.5]dec-2-en-8-yl)ethyl)-1H-indol-6-yl)isoindolin-1-one]
95 | COc1cc(C)c(S(=O)(=O)Nc2cccc3ccn(CC(=O)N4CCC5(CCN(c6ccncc6)C5)C4)c23)c(C)c1 (centres unmarked) [Compound G-17, 4-Methoxy-2,6-dimethyl-N-(1-(2-oxo-2-(7-(pyridin-4-yl)-2,7-diazaspiro[4.4]nonan-2-yl)ethyl)-1H-indol-7-yl)benzenesulfonic acid amide]
94 | O=C(Cn1ccc2ccc(N3Cc4cccc(Cl)c4C3=O)cc21)N1CCC2(CCC(Oc3ccncc3)CC2)CC1 [Compound G-19, 7-Chloro-2-(1-(2-oxo-2-(9-(pyridin-4-yloxy)-3-azaspiro[5.5]undecan-3-yl)ethyl)-1H-indol-6-yl)isoindolin-1-one]
13 | O=C(Cn1ccc2ccc(N3Cc4cccc(Cl)c4C3=O)cc21)N1CCC2(CCC(N3CC(F)(F)C3)CC2)CC1 [Compound G-20, 7-Chloro-2-(1-(2-(9-(3,3-difluoroazetidin-1-yl)-3-azaspiro[5.5]undecan-3-yl)-2-oxoethyl)-1H-indol-6-yl)isoindolin-1-one]
43 | O=C(Cn1ccc2ccc(N3Cc4cccc(Cl)c4C3=O)cc21)N1CCC2(CCC(N3CCC3)CC2)CC1 [Compound G-21, 2-(1-(2-(9-(Azetidin-1-yl)-3-azaspiro[5.5]undecan-3-yl)-2-oxoethyl)-1H-indol-6-yl)-7-chloroisoindolin-1-one]
